The source of these data is US11279687B2, “Compounds and compositions for the inhibition of NAMPT” (Valo Health, Inc., priority 2010, dated 2022).

Molecules are shown by their SMILES. pIC50: −log10 of the molar value. Like-named read-outs stand apart in the source and are kept apart here. A value given as a limit tells only on which side of the number the result lay.

The target of test [1] is NAMPT (Homo sapiens (Human), UniProt P43490). Briefly: NAMPT biochemical inhibition assay (NMN quantified by mass spectrometry). Conditions: NAMPT biochemical inhibition; read-out: Biochem IC50.
Test [2] has as its system A2780 cells. Briefly: In-vitro cell proliferation assay (SRB), A2780 cells.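 Note: viable cell number read as SRB absorbance, background from media-only wells subtracted, IC50 interpolated from percent inhibition at two bracketing compound concentrations.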 The test is classed as cell-based. Conditions: A2780 cells, 72 hours, SRB, read-out: A2780 IC50.

Chain of NAMPT (P43490 whole entry): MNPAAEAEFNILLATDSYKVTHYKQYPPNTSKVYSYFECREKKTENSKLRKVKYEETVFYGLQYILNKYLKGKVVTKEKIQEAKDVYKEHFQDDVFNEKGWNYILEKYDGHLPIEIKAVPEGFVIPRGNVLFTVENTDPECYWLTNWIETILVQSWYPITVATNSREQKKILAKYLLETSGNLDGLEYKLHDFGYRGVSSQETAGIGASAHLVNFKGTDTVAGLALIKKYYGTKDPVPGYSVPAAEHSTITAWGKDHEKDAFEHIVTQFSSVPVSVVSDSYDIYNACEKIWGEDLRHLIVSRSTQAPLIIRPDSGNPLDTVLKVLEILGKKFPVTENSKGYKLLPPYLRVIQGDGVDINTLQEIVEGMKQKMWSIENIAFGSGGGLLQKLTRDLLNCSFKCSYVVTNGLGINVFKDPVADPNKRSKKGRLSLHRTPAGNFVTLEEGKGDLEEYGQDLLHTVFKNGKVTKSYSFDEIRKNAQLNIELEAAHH

By pIC50 is commonly meant −log10 of the IC50, conventionally taken in molar units. On to `CCOc1ccccc1NS(=O)(=O)c1ccc(NC(=O)NCc2cccnc2)cc1` [3-{4-[(2-ethoxyphenyl)sulfamoyl]phenyl}-1-(pyridin-3-ylmethyl)urea], for which the negative logarithm of the IC50 (pIC50) in test [1] was 8.52; in test [2] (Homo sapiens, A2780, 72 h), 7.49.

On to `O=C(NCc1cccnc1)Nc1ccc(S(=O)(=O)c2cncc(F)c2)cc1` [3-[4-(5-fluoropyridine-3-sulfonyl)phenyl]-1-(pyridin-3-ylmethyl)urea], for which the pIC50 is 8.06 in test [1] and 6.00 to 7.00 in test [2] (Homo sapiens, A2780, 72 h).

As to `O=C(NCc1cccnc1)Nc1ccc(S(=O)(=O)N2CCC[C@H](C(=O)N3CCCC3)C2)cc1` [3-(pyridin-3-ylmethyl)-1-{4-[(3S)-3-[(pyrrolidin-1-yl)carbonyl]piperidine-1-sulfonyl]phenyl}urea], the pIC50 in test [1] is 8.05; in test [2] (Homo sapiens, A2780, 72 h), 6.86.

With `COc1ccc(CNS(=O)(=O)c2ccc(NC(=O)NCc3cccnc3)cc2)cc1` [3-(4-{[(4-methoxyphenyl)methyl]sulfamoyl}phenyl)-1-(pyridin-3-ylmethyl)urea], the negative logarithm of the IC50 (pIC50) in test [1] was 7.80; in test [2] (Homo sapiens, A2780, 72 h), 6.29.

Consider `NC(=O)c1ccc(CNC(=O)Nc2ccc(S(=O)(=O)N3CCCCC3)cc2)cn1` [5-[({[4-(piperidine-1-sulfonyl)phenyl]carbamoyl}amino)methyl]pyridine-2-carboxamide], for which the pIC50 in test [1] was less than 5.00; in test [2] (Homo sapiens, A2780, 72 h), 4.56.

On to `O=C(NCc1cccnc1)Nc1ccc(S(=O)(=O)c2cc(F)cc(F)c2)cc1` [3-{4-[(3,5-difluorobenzene)sulfonyl]phenyl}-1-(pyridin-3-ylmethyl)urea], for which the pIC50 was 8.52 in test [1] and 6.55 in test [2] (Homo sapiens, A2780, 72 h).

Take `COCCC1CCCN(S(=O)(=O)c2ccc(NC(=O)NCc3cccnc3)cc2)C1` (stereo not drawn) [3-{4-[3-(2-methoxyethyl)piperidine-1-sulfonyl]phenyl}-1-(pyridin-3-ylmethyl)urea]: the pIC50 is 8.40 in test [1] and 7.05 in test [2] (Homo sapiens, A2780, 72 h).

Consider `COc1cc(NS(=O)(=O)c2ccc(NC(=O)NCc3cccnc3)cc2)cc(OC)c1` [3-{4-[(3,5-dimethoxyphenyl)sulfamoyl]phenyl}-1-(pyridin-3-ylmethyl)urea], for which the pIC50 is 8.30 in test [1] and 7.02 in test [2] (Homo sapiens, A2780, 72 h).

In the case of `O=C(NCc1cccnc1)Nc1ccc(S(=O)(=O)N2CCN(C(=O)[C@H]3CCCO3)CC2)cc1` [1-[4-(4-{[(2R)-oxolan-2-yl]carbonyl[piperazine-1-sulfonyl)phenyl]-3-(pyridin-3-ylmethyl)urea], the results for the pIC50 in test [1] and in test [2] were 8.10 and 7.52, respectively.

As to `CCOc1ccc(S(=O)(=O)c2ccc(NC(=O)NCc3cccnc3)cc2)cc1F` [3-{4-[(4-ethoxy-3-fluorobenzene)sulfonyl]phenyl}-1-(pyridin-3-ylmethyl)urea], the pIC50 in test [1] was 8.92; in test [2] (Homo sapiens, A2780, 72 h), 7.66.

Regarding `O=C(NCc1cccnc1)Nc1ccc(S(=O)(=O)c2cc(OC(F)(F)F)ccc2Cl)cc1` [3-(4-{[2-chloro-5-(trifluoromethoxy)benzene]sulfonyl}phenyl)-1-(pyridin-3-ylmethyl)urea], the pIC50 in test [1] was 8.20; in test [2] (Homo sapiens, A2780, 72 h), 6.00 to 7.00.

For `O=C(NCc1cccnc1)Nc1ccc(S(=O)(=O)c2ccc3c(c2)OCCO3)cc1` [1-[4-(2,3-dihydro-1,4-benzodioxine-6-sulfonyl)phenyl]-3-(pyridin-3-ylmethyl)urea], the pIC50 in test [1] was 8.96; in test [2] (Homo sapiens, A2780, 72 h), 6.00 to 7.00.

In the case of `O=C(NCc1cccnc1)Nc1ccc(S(=O)(=O)NCC2CCCCC2)cc1` [1-{4-[(cyclohexylmethyl)sulfamoyl]phenyl}-3-(pyridin-3-ylmethyl)urea], the pIC50 in test [1] was 8.40; in test [2] (Homo sapiens, A2780, 72 h) it was 6.74.

Consider `O=C(NCc1cccnc1)Nc1ccc(S(=O)(=O)C(F)(F)F)cc1` [1-(pyridin-3-ylmethyl)-3-[4-(trifluoromethane)sulfonylphenyl]urea], for which the pIC50 was 6.65 in test [1] and 5.00 in test [2] (Homo sapiens, A2780, 72 h).

Take `O=C(NCc1cccnc1)Nc1ccc(S(=O)(=O)Nc2ccc(Cl)c(Cl)c2)cc1` [3-{4-[(3,4-dichlorophenyl)sulfamoyl]phenyl]-1-(pyridin-3-ylmethyl)urea]: the pIC50 in test [1] was 8.22; in test [2] (Homo sapiens, A2780, 72 h), 6.91.
